Source: patent publication US9662327B2 (AGIOS PHARMACEUTICALS, INC, priority 2011, dated 2017)
Where two headings read alike, the source gives them in different places.

Experiments:
[1] = test system: HT1080 cells; experiment: Cellular assay for IDH1m inhibitors: inhibition of 2-HG production in HT1080 cells (LC-MS); assay type: cell-based; conditions: Homo sapiens, HT-1080, 48 hours
Experimental: (§1) Cells (e.g., HT1080 or U87MG) are grown in T125 flasks in DMEM containing 10% FBS, 1× penicillin/streptomycin and 500 ug/mL G418. They are harvested by trypsin and seeded into 96 well white bottom plates at a density of 5000 cell/well in 100 ul/well in DMEM with 10% FBS. No cells are plates in columns 1 and 12. Cells are incubated overnight at 37 C in 5% CO2. The next day compounds are made up at 2× concentration and 100 ul are added to each cell well. The final concentration of DMSO is 0.2% and the DMSO control wells are plated in row G. The plates are then placed in the incubator for 48 hours. At 48 hours, 100 ul of media is removed from each well and analyzed by LC-MS for 2-HG concentrations. The cell plate is placed back in the incubator for another 24 hours. At 72 hours post compound addition, 10 mL/plate of Promega Cell Titer Glo reagent is thawed and mixed. The cell plate is removed from the incubator and allowed to equilibrate to room temperature. Then 100 ul of reagent is added to each well of media. The cell plate is then placed on an orbital shaker for 10 minutes and then allowed to sit at room temperature for 20 minutes. The plate is then read for luminescence with an integration time of 500 ms.

[2] = test system: U87R132H (U87MG) cells; experiment: Cellular assay for IDH1m inhibitors: inhibition of 2-HG production in U87MG (U87R132H) cells (LC-MS); assay type: cell-based; conditions: Homo sapiens, U-87 MG, 48 hours
Experimental: as §1

[3] = biological target: IDH1 R132H (Homo sapiens (Human), UniProt O75874, R132H); experiment: Assays for IDH1 R132H Inhibitors (NADPH/aKG, resazurin detection); assay type: biochemical; conditions: IDH1 R132H enzyme
Procedure, shortened: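 Mutant enzyme in 150 mM NaCl, 10 mM MgCl2, 20 mM Tris pH 7.5, 0.03% BSA; compound in DMSO added to substrate mix of 8 uM NADPH and 2 mM aKG. Reaction ran 50 min at room temperature, then resazurin detection mix (30 μM) added for 5 min at room temperature.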

[4] = Table 2, read-out: IDHR132H Activity

IDH1 R132H, sequence (O75874 whole entry R132H): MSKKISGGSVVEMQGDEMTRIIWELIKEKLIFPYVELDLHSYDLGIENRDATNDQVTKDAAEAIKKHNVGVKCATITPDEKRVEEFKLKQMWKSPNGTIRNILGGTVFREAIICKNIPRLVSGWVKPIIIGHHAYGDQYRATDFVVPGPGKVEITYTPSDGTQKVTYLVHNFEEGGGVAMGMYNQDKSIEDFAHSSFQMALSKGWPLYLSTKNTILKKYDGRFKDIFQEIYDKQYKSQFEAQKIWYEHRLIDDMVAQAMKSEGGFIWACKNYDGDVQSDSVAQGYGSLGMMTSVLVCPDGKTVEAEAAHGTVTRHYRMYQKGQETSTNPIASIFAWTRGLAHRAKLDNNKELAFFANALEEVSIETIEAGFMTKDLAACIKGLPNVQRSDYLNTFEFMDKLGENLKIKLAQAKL

`COCCC(=O)N1CCN(c2nc(C3CC3)c3c(c2C#N)CCN(S(C)(=O)=O)C3)C[C@H]1C1CC1` [Compound 479, (R)-1-cyclopropyl-3-(3-cyclopropyl-4-(3-methoxypropanoyl)piperazin-1-yl)-7-(methylsulfonyl)-5,6,7,8-tetrahydro-2,7-naphthyridine-4-carbonitrile] was tested, and the IC50 [1] was 500 to 1000 nM, the IC50 [2] was less than 500 nM and the IC50 ([3]; Table 3, read-out: R132H IC50) was less than 500 nM.
`CCOC(=O)C1CN(c2nc(C3CC3)c3c(c2C#N)CC(C)(C)OC3)CCN1C(=O)Cc1cccs1` (centres unmarked) [Compound 421, Ethyl 4-(5-cyano-8-cyclopropyl-3,3-dimethyl-3,4-dihydro-1H-pyrano[3,4-c]pyridin-6-yl)-1-(2-(thiophen-2-yl)acetyl)piperazine-2-carboxylate] gave an IC50 [1] of 1000 to 10000 nM, an IC50 [2] of 1000 to 10000 nM and an IC50 ([3]; Table 3, read-out: R132H IC50) of 500 to 1000 nM.
`CC1(C)Cc2c(C#N)c(N3CCN(C(=O)C4CC4)[C@H](C4CC4)C3)nc(C3CC3)c2CO1` [Compound 461, (R)-6-(4-(cyclopropanecarbonyl)-3-cyclopropylpiperazin-1-yl)-8-cyclopropyl-3,3-dimethyl-3,4-dihydro-1H-pyrano[3,4-c]pyridine-5-carbonitrile] gave an IC50 [1] of 500 to 1000 nM, an IC50 [2] of less than 500 nM and an IC50 ([3]; Table 3, read-out: R132H IC50) of less than 500 nM.
`[2H]C1([2H])CN(C(=O)CCOC)[C@]([2H])(C([2H])(C([2H])([2H])[2H])C([2H])([2H])[2H])CN1c1nc(C2CC2)c2c(c1C#N)CC(C)(C)OC2` [Compound 444, (R)-8-cyclopropyl-3,3-dimethyl-6-(2,2,5-trideuterio-4-(3-methoxypropanoyl)-5-(perdeuteriopropan-2-yl)piperazin-1-yl)-3,4-dihydro-1H-pyrano[3,4-c]pyridine-5-carbonitrile] was tested, and the IC50 [1] was less than 500 nM, the IC50 [2] was less than 500 nM and the IC50 ([3]; Table 3, read-out: R132H IC50) was less than 500 nM.
Work on `COCCC(=O)N1CCN(c2nc(C3CC3)c3c(c2C#N)CN(S(C)(=O)=O)CC3)C[C@H]1C1CC1` [Compound 487, (R)-1-cyclopropyl-3-(3-cyclopropyl-4-(3-methoxypropanoyl)piperazin-1-yl)-6-(methylsulfonyl)-5,6,7,8-tetrahydro-2,6-naphthyridine-4-carbonitrile] yielded an IC50 [1] of 1000 to 10000 nM and an IC50 [2] of 1000 to 10000 nM.
`C=C(F)C(=O)N1CCc2c(C3CC3)nc(N3CCN(C(=O)CCOC)[C@H](C4CC4)C3)c(C#N)c2C1` [Compound 492] showed an IC50 [1] of 1000 to 10000 nM and an IC50 ([3]; Table 3, read-out: R132H IC50) of 500 to 1000 nM.
In the case of `C=CC(=O)N1CCc2c(C3CC3)nc(N3CCN(C(=O)C4CC4)[C@H](C4CC4)C3)c(C#N)c2C1` [Compound 482, (R)-6-acryloyl-3-(4-(cyclopropanecarbonyl)-3-cyclopropylpiperazin-1-yl)-1-cyclopropyl-5,6,7,8-tetrahydro-2,6-naphthyridine-4-carbonitrile], the IC50 [1] is reported as less than 500 nM and the IC50 [2] is reported as less than 500 nM.
For `C=CC(=O)N1CCc2c(C#N)c(N3CCN(C(=O)CC(F)(F)F)[C@H](C4CC4)C3)nc(C3CC3)c2C1` [Compound 490, (R)-7-acryloyl-1-cyclopropyl-3-(3-cyclopropyl-4-(3,3,3-trifluoropropanoyl)piperazin-1-yl)-5,6,7,8-tetrahydro-2,7-naphthyridine-4-carbonitrile], the IC50 [1] was 500 to 1000 nM and the IC50 ([3]; Table 3, read-out: R132H IC50) was less than 500 nM.
`C#CC(=O)N1CCc2c(C#N)c(N3CCN(C(=O)CCOC)[C@H](C4CC4)C3)nc(C3CC3)c2C1` [Compound 488, (R)-1-cyclopropyl-3-(3-cyclopropyl-4-(3-methoxypropanoyl)piperazin-1-yl)-′7-propioloyl-5,6,7,8-tetrahydro-2,7-naphthyridine-4-carbonitrile] was tested, and the IC50 [1] was less than 500 nM and the IC50 [2] was less than 500 nM.
For `C#CC(=O)N1CCc2c(C#N)c(-c3ccc(C(=O)OC)cc3F)nc(C3CC3)c2C1` [Compound 495], the IC50 [1] was less than 500 nM and the IC50 ([3]; Table 3, read-out: R132H IC50) was 500 to 1000 nM.
With `C#CC(=O)N1CCc2c(C#N)c(N3CCN(C(=O)C4CC4)[C@H](C4CC4)C3)nc(C3CC3)c2C1` [Compound 491, (R)-3-(4-(cyclopropanecarbonyl)-3-cyclopropylpiperazin-1-yl)-1-cyclopropyl-7-propioloyl-5,6,7,8-tetrahydro-2,7-naphthyridine-4-carbonitrile] the IC50 [1] was less than 500 nM and the IC50 ([3]; Table 3, read-out: R132H IC50) was less than 500 nM.
In the case of `C=C(C)C(=O)N1CCc2c(C#N)c(N3CCN(C(=O)CCOC)[C@H](C4CC4)C3)nc(C3CC3)c2C1` [Compound 502, (R)-1-cyclopropyl-3-(3-cyclopropyl-4-(3-methoxypropanoyl)piperazin-1-yl)-7-methacryloyl-5,6,7,8-tetrahydro-2,7-naphthyridine-4-carbonitrile], the IC50 [1] is reported as 500 to 1000 nM and the IC50 ([3]; Table 3, read-out: R132H IC50) is reported as 500 to 1000 nM.
In the case of `CC(C)[C@@H]1CN(c2nc(C3CC3)c3c(c2C#N)CC(C)(C)OC3)CCN1C(=O)CCC(=O)OCCO` [Compound 458, (R)-2-hydroxyethyl 4-(4-(5-cyano-8-cyclopropyl-3,3-dimethyl-3,4-dihydro-1H-pyrano[3,4-c]pyridin-6-yl)-2-isopropylpiperazin-1-yl)-4-oxobutanoate], the IC50 [1] is reported as 500 to 1000 nM and the IC50 [2] is reported as less than 500 nM.
`C#CC(=O)N1CCc2c(C#N)c(N3CCN(C(=O)CCO)[C@H](C4CC4)C3)nc(C3CC3)c2C1` [Compound 500, (R)-1-cyclopropyl-3-(3-cyclopropyl-4-(3-hydroxypropanoyl)piperazin-1-yl)-7-propioloyl-5,6,7,8-tetrahydro-2,7-naphthyridine-4-carbonitrile] gave an IC50 [1] of 500 to 1000 nM and an IC50 ([3]; Table 3, read-out: R132H IC50) of 500 to 1000 nM.
With `N#CCC(=O)N1CCc2c(C#N)c(N3CCN(C(=O)C4CC4)[C@H](C4CC4)C3)nc(C3CC3)c2C1` [Compound 497, (R)-7-(2-cyanoacetyl)-3-(4-(cyclopropanecarbonyl)-3-cyclopropylpiperazin-1-yl)-1-cyclopropyl-5,6,7,8-tetrahydro-2,7-naphthyridine-4-carbonitrile] the IC50 [1] was 1000 to 10000 nM and the IC50 ([3]; Table 3, read-out: R132H IC50) was 500 to 1000 nM.
`C=CC(=O)N1CCc2c(C#N)c(N3CCN(C(=O)C4CC4)[C@H](C4CC4)C3)nc(C3CC3)c2C1` [Compound 489, (R)-7-acryloyl-3-(4-(cyclopropanecarbonyl)-3-cyclopropylpiperazin-1-yl)-1-cyclopropyl-5,6,7,8-tetrahydro-2,7-naphthyridine-4-carbonitrile] showed an IC50 [1] of 500 to 1000 nM and an IC50 ([3]; Table 3, read-out: R132H IC50) of less than 500 nM.
`CC(C)c1nc(N2CCN(C(=O)Cc3cccc(Cl)c3)[C@H](C)C2)c(C#N)c2c1COC(C)(C)C2` [Compound 161, (R)-6-(4-(2-(3-chlorophenyl)acetyl)-3-methylpiperazin-1-yl)-8-isopropyl-3,3-dimethyl-3,4-dihydro-1H-pyrano[3,4-c]pyridine-5-carbonitrile] gave an IC50 [3, 4] of 1000 to 10000 nM.
Compound `C[C@@H]1CN(c2nc(C3CCCCC3)c3c(c2C#N)CCOC3)CCN1C(=O)CCl` [Compound 340, (R)-6-(4-(2-chloroacetyl)-3-methylpiperazin-1-yl)-8-cyclohexyl-3,4-dihydro-1H-pyrano[3,4-c]pyridine-5-carbonitrile] has an IC50 [3, 4] of less than 500 nM.
`CC[C@@H]1CN(c2nc(C3CC3)c3c(c2C#N)CC(C)(C)OC3)CCN1C(=O)Cc1ccccn1` [Compound 290] showed an IC50 [3, 4] of 1000 to 10000 nM.
With `CC(C)[C@@H]1CN(c2nc(C3CC3)c3c(c2C#N)CC(C)(C)OC3)CCN1C(=O)COc1cccc(F)c1` [Compound 384] the IC50 [3, 4] was 1000 to 10000 nM.
`CC(C)c1nc(N2C[C@@H](C)N(C(=O)NC3CCCCC3)[C@@H](C)C2)c(C#N)c2c1CCCC2` [Compound 109, (2S,6R)-4-(4-cyano-1-isopropyl-5,6,7,8-tetrahydroisoquinolin-3-yl)-N-cyclohexyl-2,6-dimethylpiperazine-1-carboxamide] showed an IC50 [3, 4] of 1000 to 10000 nM.
`N#Cc1c(N2CCN(C(=O)c3ccco3)CC2)nc(C2CCCC2)c2c1CCOC2` [Compound 124, 8-cyclopentyl-6-(4-(furan-2-carbonyl)piperazin-1-yl)-3,4-dihydro-1H-pyrano[3,4-c]pyridine-5-carbonitrile] showed an IC50 [3, 4] of 1000 to 10000 nM.
`CC(C)c1nc(N2CCN(C(=O)c3c[nH]c4ccccc34)CC2)c(C#N)c2c1COCC2` [Compound 104, 6-(4-(1H-indole-3-carbonyl)piperazin-1-yl)-8-isopropyl-3,4-dihydro-1H-pyrano[3,4-c]pyridine-5-carbonitrile] gave an IC50 [3, 4] of 1000 to 10000 nM.
Compound `C[C@@H]1CN(c2nc(C3CCCC3)c3c(c2C#N)CCOC3)C[C@H](C)N1C(=O)c1ccco1` [Compound 126, 8-cyclopentyl-6-((3S,5R)-4-(furan-2-carbonyl)-3,5-dimethylpiperazin-1-yl)-3,4-dihydro-1H-pyrano[3,4-c]pyridine-5-carbonitrile] has an IC50 [3, 4] of 1000 to 10000 nM.
`COC(=O)C1CN(c2nc(C3CC3)c3c(c2C#N)CC(C)(C)OC3)CCN1C(=O)c1ccoc1` (centres unmarked) [Compound 387] was tested, and the IC50 [3, 4] was 500 to 1000 nM.
In the case of `CC(C)[C@@H]1CN(c2nc(C3CC3)c3c(c2C#N)CC(C)(C)OC3)CCN1C(=O)CC(=O)O` [Compound 418, (R)-3-(4-(5-cyano-8-cyclopropyl-3,3-dimethyl-3,4-dihydro-1H-pyrano[3,4-c]pyridin-6-yl)-2-isopropylpiperazin-1-yl)-3-oxopropanoic acid], the IC50 [3, 4] is reported as 1000 to 10000 nM.
In the case of `N#Cc1c(N2CCN(C(=O)c3ccco3)CC2)nc(C2CCCCC2)c2c1CCOC2` [Compound 110, 8-cyclohexyl-6-(4-(furan-2-carbonyl)piperazin-1-yl)-3,4-dihydro-1H-pyrano[3,4-c]pyridine-5-carbonitrile], the IC50 [3, 4] is reported as 1000 to 10000 nM.
